Test results reported in article PMC10423218, “Molecular mechanism underlying regulation of Arabidopsis CLCa transporter by nucleotides and phospholipids” (Nature Communications, 2023).

Experiments:
AtCLCa ΔN44 mutant = target: T1, AtCLCa ΔN44 mutant (Arabidopsis thaliana, UniProt P92941); assay: whole-cell patch clamp, HEK293T; assay type: cell-based; conditions: 5 mM in pipette (cytosolic side); nitrate bath; pH 7.4
T1 construct: gene CLC-A; N-terminal 44-residue deletion, beta-hairpin retained, homodimer, pKH3 vector in HEK293T
T1 sequence (P92941 45-775): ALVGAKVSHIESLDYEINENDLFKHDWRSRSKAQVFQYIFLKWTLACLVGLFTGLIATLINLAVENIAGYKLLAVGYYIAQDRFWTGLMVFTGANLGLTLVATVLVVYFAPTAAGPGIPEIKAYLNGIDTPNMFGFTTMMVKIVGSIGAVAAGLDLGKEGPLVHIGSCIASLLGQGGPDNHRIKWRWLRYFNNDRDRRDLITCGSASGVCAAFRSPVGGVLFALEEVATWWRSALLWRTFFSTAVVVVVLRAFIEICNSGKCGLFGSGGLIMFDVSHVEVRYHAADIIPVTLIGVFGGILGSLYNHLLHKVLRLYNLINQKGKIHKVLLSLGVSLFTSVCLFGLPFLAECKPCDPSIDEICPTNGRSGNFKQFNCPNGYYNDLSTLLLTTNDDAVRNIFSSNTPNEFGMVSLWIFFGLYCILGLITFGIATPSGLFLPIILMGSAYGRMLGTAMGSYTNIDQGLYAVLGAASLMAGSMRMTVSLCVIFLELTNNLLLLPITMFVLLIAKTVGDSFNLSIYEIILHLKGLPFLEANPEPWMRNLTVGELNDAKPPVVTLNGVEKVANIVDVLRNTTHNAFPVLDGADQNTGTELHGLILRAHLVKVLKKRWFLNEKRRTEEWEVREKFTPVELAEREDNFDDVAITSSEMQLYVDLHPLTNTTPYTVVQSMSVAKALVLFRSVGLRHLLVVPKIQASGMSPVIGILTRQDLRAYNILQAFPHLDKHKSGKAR

AtCLCa ΔN53 mutant = target: T2, AtCLCa ΔN53 mutant (Arabidopsis thaliana, UniProt P92941); assay: whole-cell patch clamp, HEK293T; assay type: cell-based; conditions: 5 mM in pipette (cytosolic side); nitrate bath; pH 7.4
T2 construct: gene CLC-A; N-terminal deletion ΔN53 (beta-hairpin residues 44-53 removed), homodimer, pKH3 vector in HEK293T
T2 sequence (P92941 54-775): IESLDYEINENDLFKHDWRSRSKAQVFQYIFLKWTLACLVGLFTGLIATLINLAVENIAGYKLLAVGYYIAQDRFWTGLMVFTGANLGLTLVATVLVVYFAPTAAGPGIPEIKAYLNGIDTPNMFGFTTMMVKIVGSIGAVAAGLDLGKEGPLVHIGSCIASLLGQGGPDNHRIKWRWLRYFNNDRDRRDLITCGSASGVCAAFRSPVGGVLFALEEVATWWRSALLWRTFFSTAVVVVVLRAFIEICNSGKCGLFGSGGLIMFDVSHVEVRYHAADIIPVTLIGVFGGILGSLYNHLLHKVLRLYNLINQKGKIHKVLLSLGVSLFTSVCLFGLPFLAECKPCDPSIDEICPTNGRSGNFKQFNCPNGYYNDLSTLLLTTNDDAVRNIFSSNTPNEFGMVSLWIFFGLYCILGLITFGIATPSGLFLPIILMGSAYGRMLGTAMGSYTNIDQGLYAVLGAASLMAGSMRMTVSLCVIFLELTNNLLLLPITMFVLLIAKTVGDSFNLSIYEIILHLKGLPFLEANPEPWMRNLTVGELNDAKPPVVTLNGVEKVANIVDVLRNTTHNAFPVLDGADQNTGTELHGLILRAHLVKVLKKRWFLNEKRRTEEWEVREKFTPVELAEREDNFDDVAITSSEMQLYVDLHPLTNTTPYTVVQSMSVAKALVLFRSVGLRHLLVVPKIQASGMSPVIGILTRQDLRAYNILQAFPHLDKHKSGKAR

Nc1ncnc2c1ncn2[C@@H]1O[C@H](COP(=O)(O)OP(=O)(O)OP(=O)(O)O)[C@@H](O)[C@H]1O [ATP]
inhibition of NO3^- currents at 5 mM (AtCLCa ΔN44 mutant): exhibits similar inhibition pattern to wild-type AtCLCa upon ATP addition
inhibition of NO3^- currents at 5 mM (AtCLCa ΔN53 mutant): the NO3^− currents in ΔN53 mutant are not influenced by the addition of ATP
